This note sets out measurements from PubChem BioAssay AID1996.

The term kinetic solubility denotes solubility judged after dilution from a stock solution rather than from solid.

In brackets after ≈: the same amount, converted by molar mass.

The conditions of this data set: buffer; pH 7.4; 200.0 µM.
`Cc1cc(C)c(S(=O)(=O)N2CCCc3ccccc32)c(C)c1`: the kinetic solubility turned out to be 1.8 µg/mL (≈ 5.71 µM).
In turn, `CC(CN1CCCC1)OC(=O)c1ccc(Cl)cc1.Cl` (stereo not drawn) returned a solubility (kinetic) of more than 45.6 µg/mL.
`COC(=O)c1cc(=O)n(-c2c(Cl)cc(C(F)(F)F)cc2Cl)[nH]1` had a kinetic solubility of more than 53.3 µg/mL.
`Cn1ccnc1SCC(=O)c1ccc2ccccc2c1`: the kinetic solubility is 35.8 µg/mL (≈ 127 µM).
In the case of `O=C(O)CN1CCN(C(c2ccccc2)c2ccccc2)CC1`, the kinetic solubility was more than 46.6 µg/mL.
Compound `CC(NC(=O)C1=CC=CN2CCS(=O)(=O)N=C12)c1ccc(Cl)c(Cl)c1` (stereo not drawn) yielded a solubility (kinetic) of more than 60 µg/mL.
On to `CC1(c2ccccc2)NC(=O)N(CC(=O)N(c2ccccc2)C2CCS(=O)(=O)C2)C1=O` (stereo not drawn), for which the solubility (kinetic) turned out to be 60.3 µg/mL (≈ 137 µM).
The compound `CCCc1cc(=O)[nH]c(SCC(=O)Nc2nonc2C)n1` yielded a kinetic solubility of more than 46.4 µg/mL.
Then `O=[N+]([O-])c1ccc(O)c(Nc2ncnc3ccccc23)c1`, with 1.4 µg/mL (≈ 4.96 µM).
On to `Cc1cccc(N2CCN(S(=O)(=O)c3ccc(Cl)nc3)CC2C)c1` (stereo not drawn), for which the solubility (kinetic) worked out at 3.6 µg/mL (≈ 9.84 µM). This solubility kinetic lies about 2.6-fold higher than the previous one.
Compound `COc1ccc(C(=O)C2CCN(C(=O)c3ccc(F)cc3)CC2)cc1` had a kinetic solubility of 50.6 µg/mL (≈ 148 µM).
The result for `Cc1ccc(CNC(=O)COC(=O)c2cnc(C)cn2)cc1` reads more than 44.9 µg/mL.
Then `Cc1ccc(CC(=O)NCCc2ccc(S(N)(=O)=O)cc2)cc1`, with more than 49.9 µg/mL.
`Cc1ccc(C)c2c1N(Cc1ccccc1)C(=O)C21OCCO1` yielded a solubility (kinetic) of less than 0.7 µg/mL.
Turning to `CCC(C(=O)OCC(=O)Nc1ccc(OC)cc1OC)c1ccccc1` (stereo not drawn), the kinetic solubility amounted to 3.5 µg/mL (≈ 9.79 µM).
`CN1CC2([N+](=O)[O-])CC=C(Cl)C([N+](=O)[O-])(C1)C2` (stereo not drawn): the solubility (kinetic) was more than 39.3 µg/mL.
The result for `Cc1ccc2c(Cl)cc(Cl)c(OCC(=O)NC(C)(C)C)c2n1` reads 10 µg/mL (≈ 29.3 µM); that for `O=C(Nc1ccccc1Br)c1cccc2ccccc12`, less than 0.7 µg/mL.
Compound `Cn1c(=O)c2c(O)c(Cc3ccccc3)c(=O)n(C)c2n(C)c1=O` showed a kinetic solubility of 36 µg/mL (≈ 110 µM).
As to `CC(C)c1nc(NCCO)c(C#N)c2c1CCCC2`, the solubility (kinetic) was found to be 9 µg/mL (≈ 34.7 µM).
In turn, `Nc1cc(Cl)ccc1Nc1ccncc1` came in with a solubility (kinetic) of more than 33 µg/mL.
For `COC(OC)c1ccnc(-c2ccc(OC(=O)c3ccccc3)cc2)n1`, the solubility (kinetic) was less than 0.4 µg/mL.
The compound `CN(C)C(=O)COc1ccc2c3c(c(=O)oc2c1)CCCC3` gave a kinetic solubility of 44.6 µg/mL (≈ 148 µM).
With `O=C(COC(=O)c1ccccc1)NC12CC3CC(CC(C3)C1)C2`, the kinetic solubility stood at 9.2 µg/mL (≈ 29.4 µM).
Then `OCCCc1nc2ccccc2n1CCCCOc1ccccc1`, with 44.6 µg/mL (≈ 137 µM); and `Cc1ccc(NC(=S)Nc2cc(C)on2)cc1`, with 31.8 µg/mL (≈ 129 µM); and `CC(C)c1ccc(NC(=O)Cc2c(C(=O)O)n(C)c3ccccc23)cc1`, with more than 52.6 µg/mL.
The result for `O=C(Nc1cccc2ccccc12)c1ccc([N+](=O)[O-])o1` reads 40.3 µg/mL (≈ 143 µM).
In the case of `COCCn1c(SCC(=O)NC2CCCC2)nc2cccnc21`, the solubility (kinetic) was more than 50.2 µg/mL.
`O=C(COc1ccc2cc(Br)ccc2c1Br)N1CCOCC1`: the solubility (kinetic) is 13.9 µg/mL (≈ 32.4 µM).
In the case of `O=C(O)CCn1c(=O)oc2cc(S(=O)(=O)N3CCCC3)ccc21`, the kinetic solubility was more than 51.1 µg/mL.
Compound `CCCCc1c(C)nc2ccccc2c1SCCC(=O)O` yielded a solubility (kinetic) of more than 45.5 µg/mL.
As for `COC(=O)c1cc(S(=O)(=O)N2CCCC(C)C2)cn1C` (stereo not drawn), the kinetic solubility was 43.2 µg/mL (≈ 144 µM).
`N#CCCSc1ccccc1NC(=O)c1cc(=O)c2ccccc2o1` registered a kinetic solubility of 2.2 µg/mL (≈ 6.28 µM). Compared with the last compound, the solubility kinetic is about 20-fold lower.
`Cc1ccc(C(=O)Nc2ccc(N3CCN(C)CC3)nc2)cc1` came in with a solubility (kinetic) of more than 46.6 µg/mL.
For the compound `CC1CCCN(C(=O)COC(=O)Cc2c[nH]c3ccccc23)C1` (stereo not drawn), the kinetic solubility is more than 47.2 µg/mL.
Compound `COc1cccc(OC)c1C(=O)N1CCNCC1.O=C(O)C(=O)O` came in with a solubility (kinetic) of 49.7 µg/mL.
As for `S=C(Nc1ccccc1)N1CCN(C/C=C/c2ccccc2)CC1`, the kinetic solubility was more than 50.6 µg/mL.
In turn, `NC(=O)c1ccc(NC(=O)COC(=O)CCSc2ccccc2)cc1` showed a solubility (kinetic) of 15.1 µg/mL (≈ 42.1 µM).
`CC(=O)Nc1ccc(SCC(=O)N(C)CC(=O)Nc2ccccc2Cl)cc1` displayed a kinetic solubility of more than 60.9 µg/mL.
`COc1ccc(-c2csc(C)n2)cc1Br`: the kinetic solubility was 14.8 µg/mL (≈ 52.1 µM).
Regarding `CC1CN(C(=S)Nc2ccc(SC(F)F)cc2)CC(C)O1` (stereo not drawn), the kinetic solubility is more than 49.9 µg/mL.
As to `CCSC1=C(C#N)C(c2ccc(C)o2)CC(=O)N1` (stereo not drawn), the kinetic solubility was more than 39.3 µg/mL.
Turning to `Cl.O=C(CCN1CCOCC1)NC12CC3CC(CC(C3)C1)C2`, the solubility (kinetic) was 48.9 µg/mL.
Then `O=C(c1ccc(F)cc1)N1CCC(c2ccccc2)C1` (stereo not drawn), with 39.8 µg/mL (≈ 148 µM); and `CS(=O)(=O)c1ccc(-c2csc(-c3cccnc3)n2)cc1`, with 5.6 µg/mL (≈ 17.7 µM).
For `On1c(-c2ccc(Cl)cc2Cl)nc2ncccc21`, the kinetic solubility was more than 42 µg/mL.
`Cn1c(SCc2ccccc2Br)nc2ccccc2c1=O` registered a solubility (kinetic) of 0.4 µg/mL (≈ 1.11 µM).
`CC1CCCN(C(=O)CCCNC(=O)c2ccc(Cl)cc2)C1` (stereo not drawn) returned a solubility (kinetic) of more than 48.4 µg/mL.
Then `Cc1cnc(C(=O)OC(C)C(=O)NCc2ccccc2)cn1` (stereo not drawn), with more than 44.9 µg/mL; and `CCOC(=O)C1=C(O)CSC1=Nc1ccc(C)cc1`, with more than 41.6 µg/mL; and `Cc1cc(NC(=O)C2CC2)ccc1NC(=O)c1cccs1`, with 13.1 µg/mL (≈ 43.6 µM).
Compound `COc1ccc(C(=O)Nc2nc3ccccc3s2)cc1` yielded a solubility (kinetic) of less than 0.3 µg/mL.
Compound `Cc1nc(-c2cccs2)ccc1C(=O)O` returned a kinetic solubility of more than 32.9 µg/mL.
The compound `COCC(=O)Nc1cc(C)cn(Cc2ccccc2Cl)c1=O` had a solubility (kinetic) of 41.4 µg/mL (≈ 129 µM).
`O=C(COC(=O)c1ccc2c(c1)OCO2)Nc1ccccc1Cl` gave a solubility (kinetic) of 3.5 µg/mL (≈ 10.5 µM).
Take `Cn1c(N)c(C(=O)COC(=O)Cc2ccccc2)c(=O)n(C)c1=O`: the solubility (kinetic) was more than 49.7 µg/mL.
In turn, `O=c1oc2ccccc2cc1-c1csc(Nc2ccc(O)cc2)n1` showed a kinetic solubility of 1.7 µg/mL (≈ 5.05 µM).
Take `O=C(Nc1ccccc1Cl)Nc1ccccc1Cl`: the solubility (kinetic) is less than 0.3 µg/mL.
On to `CC1=C(C(=O)OC(C)C)C(c2ccc3c(c2)OCO3)NC(=O)N1` (stereo not drawn), for which the solubility (kinetic) worked out at 47.3 µg/mL (≈ 149 µM).
The compound `Cc1cccc(C)c1NC(=O)N1CCCCCCC1` had a kinetic solubility of 38.8 µg/mL (≈ 149 µM).
For `O=c1[nH]cc(S(=O)(=O)N2CCOCC2)c(=O)[nH]1`, the solubility (kinetic) is more than 39.2 µg/mL.
In turn, `C=CCNC(=O)c1cc(-c2ccncc2)nc2c(C)cc(C)cc12` yielded a kinetic solubility of 2 µg/mL (≈ 6.3 µM).
`Cc1cc(NC(=O)Nc2ccccc2Cl)no1` returned a kinetic solubility of 36.2 µg/mL (≈ 144 µM). Against the preceding compound, the solubility kinetic is about 18-fold higher.
For `O=C(NCc1ccc(F)cc1)c1ccc(Br)o1`, the solubility (kinetic) worked out at 37.9 µg/mL (≈ 127 µM).
For `CSc1ncccc1C(=O)OCC(=O)Nc1ccc2c(c1)OCO2`, the kinetic solubility came out at 2.7 µg/mL (≈ 7.8 µM). This solubility kinetic is about 14-fold lower than that of the compound before.
Take `NC(=O)/C=C/C(=O)Nc1ccc(Cl)cc1`: the kinetic solubility is more than 33.7 µg/mL.
For `S=c1[nH]nc(-c2cccc3ccccc23)n1-c1cccnc1`, the kinetic solubility was more than 45.7 µg/mL.
For `Cc1ccc(C2=N/C(=C\c3cccc(F)c3)C(=O)O2)cc1`, the kinetic solubility was less than 0.6 µg/mL.
For the compound `N#CCOC(=O)[C@H](Cc1ccccc1)N1C(=O)c2ccccc2C1=O`, the kinetic solubility stood at 47.3 µg/mL (≈ 141 µM).
The result for `CCSc1nnc(NC(=O)C2CSC3(C)CCC(=O)N23)s1` (stereo not drawn) reads more than 51.7 µg/mL; that for `O=S(=O)(NCc1nc2ccccc2[nH]1)c1ccccc1`, more than 43.1 µg/mL.
`Cc1cccc(NC(=O)CCS(=O)(=O)c2ccccc2)c1` displayed a solubility (kinetic) of more than 45.5 µg/mL.
As for `C/C(N)=C(/C#N)C(=O)COC(=O)c1cc2c(s1)CCC(C)C2` (stereo not drawn), the solubility (kinetic) was 4.7 µg/mL (≈ 14.8 µM).
For the compound `C[C@H](C(=O)NCc1ccccc1)C(=O)c1ccccc1`, the solubility (kinetic) is more than 40.1 µg/mL.
`O=C(Nc1ccc2c(c1)OCCO2)C1CC(O)CN1C(=O)Nc1ccccc1` (stereo not drawn) displayed a kinetic solubility of more than 57.5 µg/mL.
On to `S=C(NCc1ccco1)NCC1CCCO1` (stereo not drawn), for which the kinetic solubility was 34.8 µg/mL (≈ 145 µM).
On to `CCCCNc1ccc2c3c(cccc13)C(=O)N(CCCC)C2=O`, for which the kinetic solubility turned out to be 2.1 µg/mL (≈ 6.47 µM).
`S=C(CN1CCCC1=S)N1CCOCC1`: the solubility (kinetic) is more than 36.7 µg/mL.
Then `CN(C)/C=C/C(=O)c1ccc(-n2cccc2)cc1`, with more than 36 µg/mL.
The result for `O=C(Nc1cccc2ncccc12)c1cc(Br)ccc1Cl` reads 5 µg/mL (≈ 13.8 µM).
`O=C(Nc1ccccn1)C(=O)Nc1ccccn1` gave a kinetic solubility of 35.6 µg/mL (≈ 147 µM).
Take `NS(=O)(=O)c1ccc(CCNC(=O)COC(=O)CCc2c[nH]c3ccccc23)cc1`: the kinetic solubility was more than 64.4 µg/mL.
`COC(=O)c1ccc(CSCC(=O)Nc2ccccc2)cc1` came in with a solubility (kinetic) of more than 47.3 µg/mL.
As to `CC(=O)Nc1c2c(nn1-c1ccc(C)cc1)CS(=O)(=O)C2`, the kinetic solubility is more than 45.8 µg/mL.
On to `CCc1nc2cccnc2n1-c1ccc(C(=O)O)cc1`, for which the kinetic solubility is more than 40.1 µg/mL.
Then `N/C(=N\OC(=O)c1ccc(F)cc1)c1cccc([N+](=O)[O-])c1`, with 2.3 µg/mL (≈ 7.58 µM).
`CCn1ccc(C(=O)NCCCN2CCCC2=O)n1`: the kinetic solubility is more than 39.6 µg/mL.
For `CCOC(=O)/C(C#N)=C1\C(=O)N(Cc2ccccc2)c2ccccc21`, the solubility (kinetic) came to 1.3 µg/mL (≈ 3.91 µM).
For the compound `COc1ccccc1NC(=S)NCc1ccc(Cl)cc1`, the solubility (kinetic) came to 33 µg/mL (≈ 108 µM).
`Cc1nc(SCC(=O)NCC2CCCO2)[nH]c(=O)c1C` (stereo not drawn) showed a solubility (kinetic) of more than 44.6 µg/mL.
The result for `CC(=O)c1cc2c(cc1NC(=O)C1CN(C(C)=O)c3ccccc3O1)OCO2` (stereo not drawn) reads 6.3 µg/mL (≈ 16.5 µM); that for `COc1ccccc1N1CCN(C(=O)c2cc(C)on2)CC1`, more than 45.2 µg/mL.
The compound `COc1ccc(S(=O)(=O)N2CCOCC2)cc1NC(=O)CCCOc1ccccc1` displayed a solubility (kinetic) of 40.9 µg/mL (≈ 94.1 µM).
As for `COc1ccc(-c2csc(N)n2)cc1F`, the kinetic solubility turned out to be 23.8 µg/mL (≈ 106 µM). This solubility kinetic is about 1.7-fold lower than that of the compound before.
`CN(C1CCCCC1)S(=O)(=O)c1cn(C)c(=O)n(C)c1=O` displayed a solubility (kinetic) of more than 47.3 µg/mL.
With `COc1ccc(CC(=O)Nc2cc(S(=O)(=O)Nc3ccc(OC)cc3)ccc2OC)cc1`, the solubility (kinetic) amounted to 14.6 µg/mL (≈ 32 µM).
As to `Cn1cccc1C1CCCN1CC(=O)Nc1ccc(C#N)c(Cl)c1` (stereo not drawn), the kinetic solubility was 12.3 µg/mL (≈ 35.9 µM).
`CC(NC(=O)c1cccc(S(=O)(=O)N(C)c2ccccc2)c1)c1cccnc1` (stereo not drawn) gave a kinetic solubility of more than 59.3 µg/mL.
Then `Cl.c1cncc(CNc2ncnc3sc4c(c23)CCC4)c1`, with 7.5 µg/mL.
Compound `COc1cccc2[nH]c3ccccc3c(=O)c12` gave a solubility (kinetic) of more than 33.8 µg/mL.
Regarding `CN(C(=O)NC1CCCCC1)c1ccccc1`, the solubility (kinetic) was more than 34.8 µg/mL.
`O=C(/C=C/c1c(Cl)cccc1Cl)N1CCOCC1` displayed a kinetic solubility of more than 42.9 µg/mL.
